Measured values published in US20020198142A1, “Cyclopeptide derivatives” (Merck Patent GmbH, priority 1997, published 2002).

Test system: mouse MC3T3 H1 osteoblast cultures
Test: Cell adhesion test: adhesion of osteoblast cultures in vitro to RGD peptide-coated material surfaces
Type: cell-based
Conditions: 50,000 cells/cm^2 inoculated, serum-free medium, 37°/95% atmospheric humidity, one hour, adhered cells/inoculated cells x 100
Procedure: Example of Cell Adhesion Test
The adhesion of mouse MC3T3 H1 osteoblast cultures in vitro to RGD peptide-coated material surfaces was investigated. In the course of this, 50,000 cells/cm^2 were inoculated and, after incubation in serum-free medium at 37°/95% atmospheric humidity for one hour, the proportion of adherent cells was determined.
Cell adhesion rate [%]=adhered cells/inoculated cells x 100

Substance | cell adhesion rate [%]
cyclo-(Arg-Gly-Asp-D-Phe-Lys(N^ε—(CO—CH2—O—CH2CH2—O—CH2CH2—NH)2—CO—(CH2)5—NH—CO—CH═CH2)) | 110.5%
cyclo-(Arg-Gly-Asp-D-Phe-Lys(N^ε—CO—(CH2)5—NH—CO—(CH2)5—NH—CO—CH═CH2)) | 92.4%
cyclo-(Arg-Gly-Asp-D-Phe-Lys(N^ε—CO—(CH2)5—NH—CO—CH═CH2)) | 11.3%
cyclo-(Arg-Gly-Asp-D-Phe-Lys(N^ε—CO—CH2CH2CO—NH—CH2CH2—SH)) | 86.2%
cyclo-(Arg-Gly-Asp-D-Phe-Lys(N^ε—CO—CH2—O—CH2CH2—O—CH2CH2—NH—CO—(CH2)5—NH—CO—CH═CH2)) | 109.0%
